According to patent publication US20240122930A1, “INTEGRIN INHIBITORS AND USES THEREOF IN COMBINATION WITH OTHER AGENTS” (Pliant Therapeutics, Inc., priority 2022, published 2024):
Read-outs that look alike come from different tables or passages of the source.

Tested on: participants with idiopathic pulmonary fibrosis (IPF)
[1] = 40 mg (n = 22), 12 weeks, listed as Cmpd 5
[2] = 80 mg (n = 23), 12 weeks, listed as Cmpd 5
[3] = 160 mg (n = 22), 12 weeks, listed as Cmpd 5
[4] = 320 mg (n = 22), treatment up to 40 weeks

Description: The groups were stratified for the use of nintedanib or pirfenidone. The groups were screened 28 days before the Day 1 of the study. At Day 1, baseline values were collected. During week 12, the subjects received the last dose, and the study was ended at week 14. Primary and secondary endpoints of the study included safety, tolerability, and PK. Exploratory endpoints included change in FVC over 12 weeks; High Resolution CT-based Quantitative Lung Fibrosis (QLF) imaging; patient-reported outcome (PRO): VAS-cough severity; and effect on selected biomarkers.
The groups were stratified for the use of nintedanib or pirfenidone. The screening was done 28 days before Day 1 and the baseline was measured on Day 1. The last dose was on Week 12, and the end of study was on Week 14. The primary and secondary endpoints include safety, tolerability, and PK. Exploratory Endpoints include change in Forced Vital Capacity (FVC) over 12 weeks, High Resolution CT-based Quantitative Lung Fibrosis (QLF) imaging, and effect on selected biomarkers.
The groups were stratified for the use of nintedanib or pirfenidone. The groups were screened 28 days before the Day 1 of the study. At Day 1, baseline values were collected. The study was continued up to Week 48. The treatment duration per protocol is at least 24 weeks and at most 48 weeks. For the study, the primary and secondary endpoints evaluated in the trial were safety, tolerability, and pharmacokinetics. The exploratory endpoints evaluated included the change in FVC over 12 and 24 weeks; high Resolution CT-based Quantitative Lung Fibrosis (QLF) imaging; patient-reported cough severity; and effect on selected biomarkers.

COCCN(CCCCc1ccc2c(n1)NCCC2)CC[C@H](Nc1ncnc2ccccc12)C(=O)O [Compound 5, (S)-4-((2-methoxyethyl) (4-(5,6,7,8-tetrahydro-1,8-naphthyridin-2-yl)butyl)amino)-2-(quinazolin-4-ylamino) butanoic acid]
Any AEs, % of participants (40 mg (n = 22), 12 weeks): (72.7) %
Any AEs, participants reporting (40 mg (n = 22), 12 weeks): 16 n
Serious TEAE (40 mg (n = 22), 12 weeks): 1 n
Serious TEAE related to study drug (40 mg (n = 22), 12 weeks): 0 n
Serious TEAE, % of participants (40 mg (n = 22), 12 weeks): (4.5) %
TEAE Diarrhea (any causality), % of participants (40 mg (n = 22), 12 weeks): (9.1) %
TEAE Diarrhea (any causality), participants reporting (40 mg (n = 22), 12 weeks): 2 n
TEAE Diarrhea related to study drug, % of participants (40 mg (n = 22), 12 weeks): (4.5) %
TEAE Diarrhea related to study drug, participants reporting (40 mg (n = 22), 12 weeks): 1 n
TEAE Leading to Death (40 mg (n = 22), 12 weeks): 0 n
TEAE Leading to Early Termination from Study (40 mg (n = 22), 12 weeks): 0 n
TEAE Leading to Interruption of Study Drug (40 mg (n = 22), 12 weeks): 0 n
TEAE Leading to Withdrawal of Study Drug (40 mg (n = 22), 12 weeks): 0 n
TEAE of CTCAE Grade 3 or Higher (40 mg (n = 22), 12 weeks): 2 n
TEAE of CTCAE Grade 3 or Higher related to study drug (40 mg (n = 22), 12 weeks): 0 n
TEAE of CTCAE Grade 3 or Higher, % of participants (40 mg (n = 22), 12 weeks): (9.1) %
TEAE related to study drug (40 mg (n = 22), 12 weeks): 4 n
TEAE related to study drug, % of participants (40 mg (n = 22), 12 weeks): (18.2) %
TEAE, % of participants (40 mg (n = 22), 12 weeks): (72.7) %
TEAE, participants reporting (40 mg (n = 22), 12 weeks): 16 n
Any AEs, % of participants [1]: 72.7%
Serious TEAE, % of participants [1]: 4.5%
TEAE Diarrhea (any causality), % of participants [1]: 9.1%
TEAE Diarrhea related to study drug, % of participants [1]: 4.5%
TEAE of CTCAE Grade 3 or Higher, % of participants [1]: 9.1%
TEAE related to study drug, % of participants [1]: 18.2%
TEAE, % of participants [1]: 72.7%
Any AEs, % of participants (80 mg (n = 23), 12 weeks): (65.2) %
Any AEs, participants reporting (80 mg (n = 23), 12 weeks): 15 n
Serious TEAE (80 mg (n = 23), 12 weeks): 0 n
Serious TEAE related to study drug (80 mg (n = 23), 12 weeks): 0 n
TEAE Diarrhea (any causality), % of participants (80 mg (n = 23), 12 weeks): (21.7) %
TEAE Diarrhea (any causality), participants reporting (80 mg (n = 23), 12 weeks): 5 n
TEAE Diarrhea related to study drug, % of participants (80 mg (n = 23), 12 weeks): (13.0) %
TEAE Diarrhea related to study drug, participants reporting (80 mg (n = 23), 12 weeks): 3 n
TEAE Leading to Death (80 mg (n = 23), 12 weeks): 0 n
TEAE Leading to Early Termination from Study (80 mg (n = 23), 12 weeks): 0 n
TEAE Leading to Interruption of Study Drug (80 mg (n = 23), 12 weeks): 0 n
TEAE Leading to Withdrawal of Study Drug (80 mg (n = 23), 12 weeks): 0 n
TEAE of CTCAE Grade 3 or Higher (80 mg (n = 23), 12 weeks): 0 n
TEAE of CTCAE Grade 3 or Higher related to study drug (80 mg (n = 23), 12 weeks): 0 n
TEAE related to study drug (80 mg (n = 23), 12 weeks): 7 n
TEAE related to study drug, % of participants (80 mg (n = 23), 12 weeks): (30.4) %
TEAE, % of participants (80 mg (n = 23), 12 weeks): (65.2) %
TEAE, participants reporting (80 mg (n = 23), 12 weeks): 15 n
Any AEs, % of participants [2]: 65.2%
TEAE Diarrhea (any causality), % of participants [2]: 21.7%
TEAE Diarrhea related to study drug, % of participants [2]: 13.0%
TEAE related to study drug, % of participants [2]: 30.4%
TEAE, % of participants [2]: 65.2%
Any AEs, % of participants (160 mg (n = 22), 12 weeks): (68.1) %
Any AEs, participants reporting (160 mg (n = 22), 12 weeks): 15 n
Serious TEAE (160 mg (n = 22), 12 weeks): 2 n
Serious TEAE related to study drug (160 mg (n = 22), 12 weeks): 0 n
Serious TEAE, % of participants (160 mg (n = 22), 12 weeks): (9.1) %
TEAE Diarrhea (any causality), % of participants (160 mg (n = 22), 12 weeks): (22.7) %
TEAE Diarrhea (any causality), participants reporting (160 mg (n = 22), 12 weeks): 5 n
TEAE Diarrhea related to study drug, % of participants (160 mg (n = 22), 12 weeks): (18.2) %
TEAE Diarrhea related to study drug, participants reporting (160 mg (n = 22), 12 weeks): 4 n
TEAE Leading to Death (160 mg (n = 22), 12 weeks): 0 n
TEAE Leading to Early Termination from Study (160 mg (n = 22), 12 weeks): 0 n
TEAE Leading to Interruption of Study Drug (160 mg (n = 22), 12 weeks): 1 n
TEAE Leading to Interruption of Study Drug, % of participants (160 mg (n = 22), 12 weeks): (4.5) %
TEAE Leading to Withdrawal of Study Drug (160 mg (n = 22), 12 weeks): 0 n
TEAE of CTCAE Grade 3 or Higher (160 mg (n = 22), 12 weeks): 2 n
TEAE of CTCAE Grade 3 or Higher related to study drug (160 mg (n = 22), 12 weeks): 1 n
TEAE of CTCAE Grade 3 or Higher related to study drug, % of participants (160 mg (n = 22), 12 weeks): (4.5) %
TEAE of CTCAE Grade 3 or Higher, % of participants (160 mg (n = 22), 12 weeks): (9.1) %
TEAE related to study drug (160 mg (n = 22), 12 weeks): 4 n
TEAE related to study drug, % of participants (160 mg (n = 22), 12 weeks): (18.2) %
TEAE, % of participants (160 mg (n = 22), 12 weeks): (63.6) %
TEAE, participants reporting (160 mg (n = 22), 12 weeks): 14 n
Any AEs, % of participants [3]: 68.2%
Serious TEAE, % of participants [3]: 9.1%
TEAE Diarrhea (any causality), % of participants [3]: 22.7%
TEAE Diarrhea related to study drug, % of participants [3]: 18.2%
TEAE Leading to Interruption of Study Drug, % of participants [3]: 4.5%
TEAE of CTCAE Grade 3 or Higher related to study drug, % of participants [3]: 4.5%
TEAE of CTCAE Grade 3 or Higher, % of participants [3]: 9.1%
TEAE related to study drug, % of participants [3]: 18.2%
TEAE, % of participants [3]: 63.6%
Any AEs, % of participants (320 mg (n = 21), 12 weeks): 85.7%
Any AEs, participants reporting (320 mg (n = 21), 12 weeks): 18 n
Serious TEAE (320 mg (n = 21), 12 weeks): 1 n
Serious TEAE related to study drug (320 mg (n = 21), 12 weeks): 0 n
Serious TEAE, % of participants (320 mg (n = 21), 12 weeks): 4.8%
TEAE Diarrhea (any causality), % of participants (320 mg (n = 21), 12 weeks): 14.3%
TEAE Diarrhea (any causality), participants reporting (320 mg (n = 21), 12 weeks): 3 n
TEAE Diarrhea related to study drug, % of participants (320 mg (n = 21), 12 weeks): 9.5%
TEAE Diarrhea related to study drug, participants reporting (320 mg (n = 21), 12 weeks): 2 n
TEAE Leading to Death (320 mg (n = 21), 12 weeks): 1 n
TEAE Leading to Death, % of participants (320 mg (n = 21), 12 weeks): 4.8%
TEAE Leading to Early Termination from Study (320 mg (n = 21), 12 weeks): 3 n
TEAE Leading to Early Termination from Study, % of participants (320 mg (n = 21), 12 weeks): 14.3%
TEAE Leading to Interruption of Study Drug (320 mg (n = 21), 12 weeks): 1 n
TEAE Leading to Interruption of Study Drug, % of participants (320 mg (n = 21), 12 weeks): 4.8%
TEAE Leading to Withdrawal of Study Drug (320 mg (n = 21), 12 weeks): 3 n
TEAE Leading to Withdrawal of Study Drug, % of participants (320 mg (n = 21), 12 weeks): 14.3%
TEAE of CTCAE Grade 3 or Higher (320 mg (n = 21), 12 weeks): 2 n
TEAE of CTCAE Grade 3 or Higher related to study drug (320 mg (n = 21), 12 weeks): 0 n
TEAE of CTCAE Grade 3 or Higher, % of participants (320 mg (n = 21), 12 weeks): 9.5%
TEAE related to study drug (320 mg (n = 21), 12 weeks): 4 n
TEAE related to study drug, % of participants (320 mg (n = 21), 12 weeks): 19.0%
TEAE, % of participants (320 mg (n = 21), 12 weeks): 81.0%
TEAE, participants reporting (320 mg (n = 21), 12 weeks): 17 n
Serious TEAE [4]: 2 n
Serious TEAE related to study drug [4]: 0 n
Serious TEAE, % of participants [4]: (9.1) %
TEAE Cough related to study drug [4]: 0 n
TEAE Cough, % of participants [4]: (13.6) %
TEAE Cough, participants reporting [4]: 3 n
TEAE Diarrhea related to study drug [4]: 4 n
TEAE Diarrhea related to study drug, % of participants [4]: (18.2) %
TEAE Diarrhea, % of participants [4]: (31.8) %
TEAE Diarrhea, participants reporting [4]: 7 n
TEAE Dyspnoea related to study drug [4]: 0 n
TEAE Dyspnoea, % of participants [4]: (22.7) %
